Data on two molecules can be found in publication PMC6324689 (Oncotarget, 2018).

What is called Papp A→B is how fast a substance crosses the layer from the apical side. A low value points to slow passage. A word on the Papp B→A: it is how fast a substance crosses the layer from the basolateral side.

Each structure is given as a SMILES string.

The target of data set [1] is T1, BCRP (Homo sapiens, UniProt Q9UNQ0).
T1 construct: host or cells: MDCKII
T1 sequence (Q9UNQ0 1-655): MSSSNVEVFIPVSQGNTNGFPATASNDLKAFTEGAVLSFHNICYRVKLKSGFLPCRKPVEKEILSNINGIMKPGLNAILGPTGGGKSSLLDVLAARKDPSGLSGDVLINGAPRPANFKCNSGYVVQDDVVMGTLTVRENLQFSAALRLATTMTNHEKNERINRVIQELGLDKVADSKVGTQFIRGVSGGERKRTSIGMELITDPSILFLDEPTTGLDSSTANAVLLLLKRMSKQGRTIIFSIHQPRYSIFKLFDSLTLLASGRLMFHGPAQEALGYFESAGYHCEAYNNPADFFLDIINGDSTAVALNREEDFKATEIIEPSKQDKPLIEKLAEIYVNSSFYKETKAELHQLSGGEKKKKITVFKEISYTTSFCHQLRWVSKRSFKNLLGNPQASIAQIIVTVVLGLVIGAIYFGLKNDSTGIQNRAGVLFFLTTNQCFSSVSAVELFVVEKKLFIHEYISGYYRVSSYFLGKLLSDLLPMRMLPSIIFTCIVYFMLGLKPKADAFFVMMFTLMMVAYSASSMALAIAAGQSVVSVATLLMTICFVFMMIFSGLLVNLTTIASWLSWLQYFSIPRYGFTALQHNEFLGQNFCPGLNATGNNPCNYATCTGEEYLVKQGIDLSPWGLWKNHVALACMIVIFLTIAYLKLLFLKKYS
Briefly: MDCKII-BCRP monolayer bidirectional transport assay. The format is in vitro ADME. The following applies: MDCKII-BCRP cells; for Papp A→B at 120 min, 1 μM / Papp B→A at 120 min, 1 μM / Papp A→B at 120 min, 10 μM / Papp B→A at 120 min, 10 μM / Papp A→B at 120 min, 100 μM / Papp B→A at 120 min, 100 μM: human. Here is the method: The monolayer assays were performed using parental and BCRP or MDR1 transfected MDCKII cell monolayers. […] Transfected and parental MDCKII cells were cultured on the inserts with 100 μL medium per well on the apical side and 25 mL in a single-well receiver tray for all 24 wells on the basolateral side, for 96 hours. Medium was changed 24 hours before the experiment. Permeability incubations were carried out in Hank’s Buffered Salt Solution (HBSS) at 37 ± 1°C. […] LY samples (100 μL from basolateral wells) were analyzed by measuring fluorescence with the following wavelengths: excitation – 430 nm, emission – 520 nm. Trans-epithelial electric resistance (TEER) of each well was measured to confirm the confluency of the monolayers after the experiments. The assays were conducted according to the actual SOLVO MDCKII-BCRP and MDCKII-MDR1 monolayer assay protocols (SOP). […] Cells were pre-incubated in assay buffer for 10 minutes to allow cells adjusting to the medium. Assay buffer containing the test articles (separately) at three concentrations (1 μM, 10 μM and 100 μM) was then added to the appropriate apical (100 μL) or basolateral (600 μL) chamber. […] The prazosin or digoxin efflux ratio was determined as a positive control for BCRP or MDR1 function, respectively. […] Bidirectional transport of the test articles in control, MDCKII-BCRP and MDCKII-MDR1 cells was determined by LC-MS/MS.

Data set [2] addresses T2, OATP1B1 (Homo sapiens, UniProt Q9Y6L6). The conditions noted are these: data not shown.
The target in data set [3] is OATP1B3 (Homo sapiens, UniProt Q9NPD5). The conditions noted are these: data not shown.
OATP1B3, sequence (Q9NPD5 whole entry, species assumed): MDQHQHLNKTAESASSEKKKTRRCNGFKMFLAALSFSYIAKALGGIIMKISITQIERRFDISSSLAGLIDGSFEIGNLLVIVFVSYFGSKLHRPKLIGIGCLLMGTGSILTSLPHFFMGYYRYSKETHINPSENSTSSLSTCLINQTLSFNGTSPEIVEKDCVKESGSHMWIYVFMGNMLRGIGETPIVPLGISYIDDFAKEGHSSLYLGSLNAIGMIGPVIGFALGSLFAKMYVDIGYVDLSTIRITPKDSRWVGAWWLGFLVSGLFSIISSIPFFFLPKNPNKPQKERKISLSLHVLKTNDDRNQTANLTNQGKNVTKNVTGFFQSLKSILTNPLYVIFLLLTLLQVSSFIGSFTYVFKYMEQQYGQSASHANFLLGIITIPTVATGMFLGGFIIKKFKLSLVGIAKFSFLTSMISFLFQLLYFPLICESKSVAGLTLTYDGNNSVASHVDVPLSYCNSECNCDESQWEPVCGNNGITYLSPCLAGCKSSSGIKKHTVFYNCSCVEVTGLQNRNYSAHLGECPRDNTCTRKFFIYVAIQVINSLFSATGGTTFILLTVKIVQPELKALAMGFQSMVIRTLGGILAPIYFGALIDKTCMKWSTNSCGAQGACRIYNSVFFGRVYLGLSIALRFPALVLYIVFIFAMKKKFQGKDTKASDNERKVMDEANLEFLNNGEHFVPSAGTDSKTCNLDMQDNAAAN
The target of data set [4] is OCT2 (Homo sapiens, UniProt O15244). The conditions noted are these: data not shown.
OCT2, sequence (O15244 whole entry): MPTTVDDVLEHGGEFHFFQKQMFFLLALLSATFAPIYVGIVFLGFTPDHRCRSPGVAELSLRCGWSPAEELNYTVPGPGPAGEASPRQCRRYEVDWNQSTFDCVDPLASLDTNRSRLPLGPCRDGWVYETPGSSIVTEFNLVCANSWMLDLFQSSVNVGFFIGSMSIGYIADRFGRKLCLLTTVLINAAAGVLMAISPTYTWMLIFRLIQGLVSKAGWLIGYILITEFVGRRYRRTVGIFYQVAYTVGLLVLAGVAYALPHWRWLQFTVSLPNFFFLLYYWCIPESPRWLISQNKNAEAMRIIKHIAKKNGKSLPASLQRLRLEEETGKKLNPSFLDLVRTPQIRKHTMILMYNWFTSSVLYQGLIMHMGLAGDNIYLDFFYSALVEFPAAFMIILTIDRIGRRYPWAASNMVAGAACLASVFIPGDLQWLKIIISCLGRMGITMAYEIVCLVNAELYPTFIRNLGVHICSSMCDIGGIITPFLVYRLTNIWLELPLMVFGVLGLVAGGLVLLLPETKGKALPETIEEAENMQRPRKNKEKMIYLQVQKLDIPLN
Data set [5] concerns the target T2, OATP1B1. The following applies: cited from earlier work.

T2 sequence (Q9Y6L6 whole entry, species assumed): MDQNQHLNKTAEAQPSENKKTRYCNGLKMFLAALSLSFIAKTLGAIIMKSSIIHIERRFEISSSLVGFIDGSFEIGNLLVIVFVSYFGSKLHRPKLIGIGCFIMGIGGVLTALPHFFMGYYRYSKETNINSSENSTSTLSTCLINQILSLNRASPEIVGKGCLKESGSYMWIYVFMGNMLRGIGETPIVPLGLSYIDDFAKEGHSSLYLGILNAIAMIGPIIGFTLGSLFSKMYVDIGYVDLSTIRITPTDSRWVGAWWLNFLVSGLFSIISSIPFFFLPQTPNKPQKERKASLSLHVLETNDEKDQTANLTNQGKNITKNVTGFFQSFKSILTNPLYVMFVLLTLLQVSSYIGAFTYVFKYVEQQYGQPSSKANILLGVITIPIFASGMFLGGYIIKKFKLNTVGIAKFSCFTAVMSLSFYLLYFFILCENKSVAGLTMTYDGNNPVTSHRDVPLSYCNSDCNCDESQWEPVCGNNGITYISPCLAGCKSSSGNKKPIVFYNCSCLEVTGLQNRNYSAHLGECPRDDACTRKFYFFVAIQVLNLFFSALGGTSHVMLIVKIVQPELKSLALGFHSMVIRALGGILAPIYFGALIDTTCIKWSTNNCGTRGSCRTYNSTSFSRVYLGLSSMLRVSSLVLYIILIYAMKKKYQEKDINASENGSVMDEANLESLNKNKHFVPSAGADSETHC

As for `NC(=O)c1cccc2cn(-c3ccc([C@@H]4CCCNC4)cc3)nc12` [Niraparib, 2-{4-[(3S)-piperidin-3-yl]phenyl}-2H-indazole-7-carboxamide], in data set [1] (1 μM), the “Net ER” value was 8.86 ± 3.28; the Papp A→B at 120 min, 1 μM came to 4.83 ± 2.29 ×10⁻⁶ cm/s; the Papp B→A at 120 min, 1 μM came out at 52.1 ± 3.09 ×10⁻⁶ cm/s. For the same molecule, in data set [1] (10 μM), the “Net ER” value worked out at 24.73 ± 6.47; the Papp A→B at 120 min, 10 μM came out at 2.27 ± 0.7 ×10⁻⁶ cm/s; the Papp B→A at 120 min, 10 μM came out at 59.6 ± 3.65 ×10⁻⁶ cm/s. Besides, in data set [1] (100 μM), the “Net ER” value worked out at 9.58 ± 1.70; the Papp A→B at 120 min, 100 μM was determined as 4.1 ± 0.13 ×10⁻⁶ cm/s; the Papp B→A at 120 min, 100 μM came to 43.1 ± 2.62 ×10⁻⁶ cm/s. The “substrate of hepatic uptake transporter OATP1B1” value in data set [2] is listed as “not a substrate”. Further, in data set [3], the “substrate of hepatic uptake transporter OATP1B3” value is listed as “not a substrate”. The “substrate of renal uptake transporter OCT2” value in data set [4] was “not a substrate”.

As for `O=C(c1cc(Cc2n[nH]c(=O)c3ccccc23)ccc1F)N1CCN(C(=O)C2CC2)CC1` [Olaparib], in data set [1] (1 μM), the “Net ER” value is 32.97 ± 9.58; the Papp A→B at 120 min, 1 μM was 1.12 ± 1.04 ×10⁻⁶ cm/s; the Papp B→A at 120 min, 1 μM is 41.4 ± 4.35 ×10⁻⁶ cm/s. In addition, in data set [1] (10 μM), the “Net ER” value is recorded as 71.22 ± 14.97; the Papp A→B at 120 min, 10 μM amounted to 0.59 ± 0.33 ×10⁻⁶ cm/s; the Papp B→A at 120 min, 10 μM was 44.1 ± 2.65 ×10⁻⁶ cm/s. For the same molecule, in data set [1] (100 μM), the “Net ER” value is recorded as 50.54 ± 13.65; the Papp A→B at 120 min, 100 μM worked out at 0.9 ± 0.22 ×10⁻⁶ cm/s; the Papp B→A at 120 min, 100 μM was determined as 46.8 ± 3.4 ×10⁻⁶ cm/s. Besides, the “inhibition of hepatic drug uptake transporter OATP1B1” value in data set [5] was “inhibits”.
